Like-named read-outs stand apart in the source and are kept apart here.
Tests used:
[1] = tested on: spontaneously hypertensive rats; assay: mean arterial blood pressure in spontaneously hypertensive rats; assay type: in vivo; details: 50 mg/kg intraperitoneally, compared to vehicle-treated controls, approximate
Experimental: Further, spontaneously hypertensive rats were treated with a suspension or solution of 1-(2-furanylmethyl)imidazole-2-thiol at a dose of 50 mg/kg intraperitoneally, and mean arterial blood pressure was monitored for 260 minutes using indwelling cannulae in the tail arteries. […] Maximal blood pressure reduction was approximately 50 to 55 mm Hg.

[2] = biological target: T1, dopamine-β-hydroxylase (DBH) (Homo sapiens, UniProt P09172); assay: in vitro DBH inhibition, conversion of tyramine to octopamine in the presence of DBH; assay type: biochemical
T1 sequence (P09172 1-617): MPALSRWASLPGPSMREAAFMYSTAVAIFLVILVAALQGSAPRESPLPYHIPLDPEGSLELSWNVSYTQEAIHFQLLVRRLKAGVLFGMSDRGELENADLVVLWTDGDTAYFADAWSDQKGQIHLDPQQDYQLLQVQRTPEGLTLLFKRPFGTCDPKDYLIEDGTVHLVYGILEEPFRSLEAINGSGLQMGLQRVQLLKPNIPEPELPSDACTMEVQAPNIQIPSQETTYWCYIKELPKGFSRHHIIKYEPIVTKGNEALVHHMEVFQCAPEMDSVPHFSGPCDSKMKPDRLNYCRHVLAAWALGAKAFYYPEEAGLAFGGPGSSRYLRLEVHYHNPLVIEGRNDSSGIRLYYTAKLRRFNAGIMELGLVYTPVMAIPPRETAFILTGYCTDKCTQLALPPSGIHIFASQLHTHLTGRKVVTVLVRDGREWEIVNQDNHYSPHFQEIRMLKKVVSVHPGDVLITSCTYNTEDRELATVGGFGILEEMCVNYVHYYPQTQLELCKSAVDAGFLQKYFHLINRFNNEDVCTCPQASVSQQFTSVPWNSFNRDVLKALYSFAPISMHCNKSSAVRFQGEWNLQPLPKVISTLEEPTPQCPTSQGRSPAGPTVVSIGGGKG
Experimental: Listed in Table I are the compounds of the invention that were tested for in vitro DBH inhibition by a standard procedure for assaying conversion of tyramine to octopamine in the presence of DBH. J. J. Pisano, et al., Biochem. Biophys, Acta, 43, 566-568 (1960). Octopamine was assayed following sodium periodate oxidation to p-hydroxybenzaldehyde by measuring spectrophotometric absorbance at 330 nm. In Table I, inhibition is given in micromolar concentration of compound at which DBH activity was halved (IC₅₀).

[3] = concentration of compound at which DBH activity was halved, tyramine to octopamine, absorbance at 330 nm, read-out: DBH IC50

## Sc1nccn1Cc1ccco1 [1-(2-furanylmethyl)imidazole-2-thiol]
[1]
  time after treatment to significant blood pressure reductions: ≤ 30 min
[2]; [3]
  IC50: 56 µM

## Sc1nccn1Cc1ccoc1 [1-(3-furanylmethyl)imidazole-2-thiol]
[2]; [3]
  IC50: 36 µM

## CCCCc1ccc(C(=O)O)nc1 [fusaric acid, reference compound]
[2]
  IC50: 0.8 µM
